Counter-ions that a name gives are not always drawn.

T1 sequence (P00533 with tags, fused parts or gaps DEL746-750/T790M limits assumed): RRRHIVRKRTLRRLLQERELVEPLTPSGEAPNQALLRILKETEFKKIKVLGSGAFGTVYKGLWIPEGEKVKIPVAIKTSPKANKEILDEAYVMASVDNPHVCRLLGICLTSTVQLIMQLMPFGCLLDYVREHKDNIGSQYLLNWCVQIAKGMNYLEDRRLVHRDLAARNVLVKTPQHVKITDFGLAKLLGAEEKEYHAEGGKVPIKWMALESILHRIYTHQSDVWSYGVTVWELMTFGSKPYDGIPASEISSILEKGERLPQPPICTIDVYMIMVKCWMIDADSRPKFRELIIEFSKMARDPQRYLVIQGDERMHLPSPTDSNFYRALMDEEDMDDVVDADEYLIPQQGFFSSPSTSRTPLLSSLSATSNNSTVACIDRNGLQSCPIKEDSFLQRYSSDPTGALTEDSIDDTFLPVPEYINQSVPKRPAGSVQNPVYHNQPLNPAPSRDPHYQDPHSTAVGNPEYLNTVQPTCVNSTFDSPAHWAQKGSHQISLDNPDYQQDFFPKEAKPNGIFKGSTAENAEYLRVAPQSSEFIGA

The test addresses T1, EGFR del746-750 T790M (Homo sapiens, UniProt P00533, DEL746-750/T790M).
T1 construct: purchased Carna Biosciences 08-528
Nature of the test: EGFR del746-750 T790M biochemical assay (Caliper mobility shift). The following applies: 5 μM ATP, 30 min, room temperature; apparent Ki (Morrison) converted by Cheng-Prusoff, Km of ATP 2.1 μM; read-out: EGFR(T790M/d746-750) Ki.
As for `CC(C)n1c(CO)nc2cnc(Nc3ccnc(C4=CCC(O)CC4)n3)cc21` (stereo not drawn) [Example 624, 4-(4-((2-(hydroxymethyl)-1-isopropyl-1H-imidazo[4,5-c]pyridin-6-yl)amino)pyrimidin-2-yl)cyclohex-3-enol], the Ki came out at 67.8 nM.
The result for `C[C@H](O)c1nc2cnc(Nc3ccnc(N4CC[C@@H](O)[C@@H](F)C4)n3)cc2n1[C@@H](C)C(F)(F)F` [Example 685] reads 26.6 nM.
In the case of `CC(C)n1c(CO)nc2cnc(Nc3ccnc(N4CCC(S(C)(=O)=O)CC4)n3)cc21` [Example 661] it was 900 nM; in that of `Cc1nc2cnc(Nc3ccnc(-c4cn(C)nc4N)n3)cc2n1C(C)C` [Example 363, N-(2-(3-Amino-1-methyl-1H-pyrazol-4-yl)pyrimidin-4-yl)-1-isopropyl-2-methyl-1H-imidazo[4,5-c]pyridin-6-amine], 31 nM.
In the case of `CCN1CCN(C(=O)c2cn(C(C)C)c3cc(Nc4ccnc(N5CCC(OC)CC5)n4)ncc23)CC1` [Example 122, (4-ethylpiperazin-1-yl)(1-isopropyl-6-((2-(4-methoxypiperidin-1-yl)pyrimidin-4-yl)amino)-1H-pyrrolo[3,2-c]pyridin-3-yl)methanone] it was 100 nM.
Take `Cc1nc2cnc(Nc3ccnc(N4CCC5(CC4)OCCCO5)n3)cc2n1C(C)C` [Example 648]: the Ki is 219 nM.
The result for `CC(n1cc(C(=O)NC2CCOCC2)c2cnc(Nc3ccnc(N4CC[C@@H](O)[C@@H](F)C4)n3)cc21)C(F)(F)F` (single isomer, unassigned) [Example 639] reads 15 nM.
The result for `CO[C@@H]1CCN(c2nccc(Nc3cc4c(cn3)nc(C)n4C(C)C)n2)C[C@H]1O` (racemic) [Example 508, (±)-1-(4-((1-Isopropyl-2-methyl-1H-imidazo[4,5-c]pyridin-6-yl)amino)pyrimidin-2-yl)-4-methoxypiperidin-3-ol] reads 359 nM; that for `COC1CCN(c2nccc(Nc3cc4c(cn3)c(C(=O)NC3CCN(C)CC3)cn4C(C)C)n2)CC1` [Example 114, 1-isopropyl-6-((2-(4-methoxypiperidin-1-yl)pyrimidin-4-yl)amino)-N-(1-methylpiperidin-4-yl)-1H-pyrrolo[3,2-c]pyridine-3-carboxamide], 2.1 nM; that for `C[C@H](n1c(CO)nc2cnc(Nc3ccnc(N4CC[C@H](O)[C@H](F)C4)n3)cc21)C(C)(F)F` (racemic) [Example 644, (±)-(cis)-1-(4-(1-((S)-3,3-Difluorobutan-2-yl)-2-(hydroxymethyl)-1H-imidazo[4,5-c]pyridin-6-ylamino)pyrimidin-2-yl)-3-fluoropiperidin-4-ol], 3.45 nM.
In the case of `C[C@H](n1c([C@@H](C)O)nc2cnc(Nc3ccnc(OCC(C)(C)S(C)(=O)=O)n3)cc21)C(F)(F)F` [Example 609, (R)-1-[6-[2-(2-Methanesulfonyl-2-methylpropoxy)pyrimidin-4-ylamino]-1-((S)-2,2,2-trifluoro-1-methylethyl)-1H-imidazo[4,5-c]pyridin-2-yl]ethanol] it was 13.1 nM.
With `CCC(C)n1cc(C(=O)NC2CCOCC2)c2cnc(Nc3ccnc(N4C[C@@H](F)[C@@H](O)C(C)(C)C4)n3)cc21` (mixture of isomers) [Example 646, 1-sec-Butyl-6-(2-((±)-cis-5-fluoro-4-hydroxy-3,3-dimethylpiperidin-1-yl)pyrimidin-4-ylamino)-N-(tetrahydro-2H-pyran-4-yl)-1H-pyrrolo[3,2-c]pyridine-3-carboxamide], the Ki came out at 3.72 nM.
The result for `Cc1nc2cnc(Nc3ccnc(NCC(C)(C)S(C)(=O)=O)n3)cc2n1C(C)C` [Example 499, N^4-(1-Isopropyl-2-methyl-1H-imidazo[4,5-c]pyridin-6-yl)-N2-(2-methyl-2-(methylsulfonyl)propyl) pyrimidine-2,4-diamine] reads 51.7 nM; that for `C[C@@H](O)c1nc2cnc(Nc3ccnc(N4CCC(O)C(F)C4)n3)cc2n1[C@H](C)C(F)(F)F` (stereo partly drawn) [Example 542, 3-Fluoro-1-{4-[2-((R)-1-hydroxyethyl)-1-((R)-2,2,2-trifluoro-1-methylethyl)-1H-imidazo[4,5-c]pyridin-6-ylamino]pyrimidin-2-yl}-piperidin-4-ol], 101 nM.
In the case of `CC(C)n1c([C@@H](C)O)nc2cnc(Nc3ccnc(-c4cnn(S(=O)(=O)C5CC5)c4)n3)cc21` [Example 561, (R)-1-{6-[2-(1-Cyclopropanesulfonyl-1H-pyrazol-4-yl)pyrimidin-4-ylamino]-1-isopropyl-1H-imidazo[4,5-c]pyridin-2-yl}ethanol] it was 1.73 nM; in that of `CCc1ncc(-c2nccc(Nc3cc4c(cn3)nc(C)n4C(C)C)n2)s1` [Example 595, [2-(2-Ethylthiazol-5-yl)pyrimidin-4-yl]-(1-isopropyl-2-methyl-1H-imidazo[4,5-c]pyridin-6-yl)amine], 9.62 nM.
The result for `Cc1nc2cnc(Nc3ccnc(N4CC[C@H](O)C4)n3)cc2n1C(C)C` [Example 681] reads 189 nM.
For the compound `CC(C)n1cnc2cnc(Nc3ccnc(N4CCC5(CCCO5)CC4)n3)cc21` [Example 141, (1-Isopropyl-1H-imidazo[4,5-c]pyridin-6-yl)-[2-(1-oxa-8-azaspiro[4.5]dec-8-yl)pyrimidin-4-yl]amine formate salt], the Ki was 55.5 nM.
Consider `C[C@H](O)c1nc2cnc(Nc3ccnc(N4CC[C@H](O)[C@H](F)C4)n3)cc2n1[C@H](C)C(F)(F)F` [Example 690], for which the Ki worked out at 387 nM.
In the case of `CC[C@H](C)n1cc(C(=O)NC2CCOCC2)c2cnc(Nc3ccnc(N4CC[C@H](OC)[C@H](F)C4)n3)cc21` (single isomer, unassigned) [Example 340] it was 3.33 nM; in that of `Cc1nc2cnc(Nc3ccnc(-n4cnc(S(C)(=O)=O)c4)n3)cc2n1C(C)C` [Example 337, 1-Isopropyl-2-methyl-N-(2-(4-(methylsulfonyl)-1H-imidazol-1-yl)pyrimidin-4-yl)-1H-imidazo[4,5-c]pyridin-6-amine], 524 nM; in that of `CC(C)n1cc(-c2cn3c(n2)CNCC3)c2cnc(Nc3ccnc(-c4cnn(S(=O)(=O)C5CC5)c4)n3)cc21` [Example 442, N-(2-(1-(cyclopropylsulfonyl)-1H-pyrazol-4-yl)pyrimidin-4-yl)-1-isopropyl-3-(5,6,7,8-tetrahydroimidazo[1,2-a]pyrazin-2-yl)-1H-pyrrolo[3,2-c]pyridin-6-amine], 0.81 nM.
In the case of `COC1CCN(c2nccc(Nc3cc4c(cn3)c(C(=O)NCCO)cn4C(C)C)n2)CC1` [Example 121, N-(2-hydroxyethyl)-1-isopropyl-6-((2-(4-methoxypiperidin-1-yl)pyrimidin-4-yl)amino)-1H-pyrrolo[3,2-c]pyridine-3-carboxamide] it was 24.4 nM.
In the case of `CC(CC1CC1)n1c(CO)nc2cnc(Nc3ccnc(-c4cnn(S(=O)(=O)C5CC5)c4)n3)cc21` (stereo not drawn) [Example 488, (1-(1-cyclopropylpropan-2-yl)-6-(2-(1-(cyclopropylsulfonyl)-1H-pyrazol-4-yl)pyrimidin-4-ylamino)-1H-imidazo[4,5-c]pyridin-2-yl)methanol] it was 2.17 nM.
For the compound `COC1CCN(c2nccc(Nc3cc4c(cn3)c(-c3cn[nH]c3)cn4C(C)C)n2)CC1` [Example 401, 1-isopropyl-N-(2-(4-methoxypiperidin-1-yl)pyrimidin-4-yl)-3-(1H-pyrazol-4-yl)-1H-pyrrolo[3,2-c]pyridin-6-amine], the Ki is 2.66 nM.
The result for `Cc1nc2cnc(Nc3ccnc(N4CCC(O)C(C)(C)C4)n3)cc2n1C(C)C` (stereo not drawn) [Example 427, 1-(4-((1-isopropyl-2-methyl-1H-imidazo[4,5-c]pyridin-6-yl)amino)pyrimidin-2-yl)-3,3-dimethylpiperidin-4-ol] reads 119 nM; that for `Cc1nc2cnc(Nc3ccnc(N4CC[C@@H](C#N)C4)n3)cc2n1C(C)C` [Example 678], 200 nM; that for `CO[C@H]1CCN(c2nccc(Nc3cc4c(cn3)nc(CO)n4C(C)C)n2)C[C@H]1F` [Example 655], 60.8 nM.
The result for `C[C@H](O)c1nc2cnc(Nc3ccnc(N4CC[C@H](O)[C@H](F)C4)n3)cc2n1[C@@H](C)C(F)(F)F` [Example 686] reads 18.5 nM; that for `C[C@H](n1c([C@@H](C)O)nc2cnc(Nc3ccnc(N4CC[C@@](C)(O)[C@@H](F)C4)n3)cc21)C(F)(F)F` (single isomer, unassigned) [Example 621, (3R*,4S*)-3-Fluoro-1-{4-[2-((R)-1-hydroxyethyl)-1-((S)-2,2,2-trifluoro-1-methylethyl)-1H-imidazo[4,5-c]pyridin-6-ylamino]pyrimidin-2-yl}-4-methylpiperidin-4-ol], 21.7 nM; that for `Cc1nc2cnc(Nc3ccnc(N4CCC(F)CC4)n3)cc2n1C(C)C` [Example 591, [2-(4-Fluoropiperidin-1-yl)pyrimidin-4-yl]-(1-isopropyl-2-methyl-1H-imidazo[4,5-c]pyridin-6-yl)amine], 55 nM.
The result for `CCC(C)n1cc(C(=O)NC2CCOCC2)c2cnc(Nc3ccnc(N4CC[C@@H](O)[C@@H](F)C4)n3)cc21` (single isomer, unassigned) [Example 323] reads 3.41 nM; that for `Cc1nc2cnc(Nc3ccnc(NCC4CCS(=O)(=O)C4)n3)cc2n1C(C)C` (stereo not drawn) [Example 652], 1160 nM.
`CO[C@H]1CCN(c2nccc(Nc3cc4c(cn3)nc(C)n4C(C)C)n2)C[C@H]1F` (racemic) [Example 524, (±)-[2-((cis)-3-Fluoro-4-methoxypiperidin-1-yl)pyrimidin-4-yl]-(1-isopropyl-2-methyl-1H-imidazo[4,5-c]pyridin-6-yl)amine]: the Ki is 50.9 nM.
The result for `CO[C@@H]1CCN(c2nccc(Nc3cc4c(cn3)nc(CO)n4C(C)C)n2)C[C@@H]1C` (racemic) [Example 632, (1-Isopropyl-6-(2-((±)-(cis)-4-methoxy-3-methylpiperidin-1-yl)pyrimidin-4-ylamino)-1H-imidazo[4,5-c]pyridin-2-yl)methanol] reads 326 nM.
Turning to `CC(C)n1c(CO)nc2cnc(Nc3ccnc(N4CCCCC4CCO)n3)cc21` (stereo not drawn) [Example 668], the Ki was 451 nM.

These data come from patent US9890152B2 (Genentech, Inc., priority 2012, dated 2018).
